Molecules are shown by their SMILES.

The experiment has as its system eosinophil. As to the kind of experiment: Eosinophil count in peripheral blood of the prostate cancer subject. Conditions: Claritin in addition to Allegra from July 1, 2016.

Regarding `CC(C)(C(=O)O)c1ccc(C(O)CCCN2CCC(C(O)(c3ccccc3)c3ccccc3)CC2)cc1` (stereo not shown) [Allegra, fexofenadine], the “eosinophil count in peripheral blood, change in words” value was “started to decrease”.
